Experimental data as given in publication PMC10892409, “Exploring Ocimum basilicum’s Secondary Metabolites: Inhibition and Molecular Docking against Rhynchophorus ferrugineus for Optimal Action” (Plants, 2024).
In brackets after ≈: the same amount, converted by molar mass. Several values for one entry are separate records, joined by “and”; a condition that tells them apart may be missing. Identical values can stand only once.

Tests used:
AChE [1] = test: In vitro AChE inhibition, larval homogenate (Ellman); type: biochemical, Rhynchophorus ferrugineus; details: fourth-instar larvae preparation
Description: (§1) The R. ferrugineus were homogenized larvae in a buffer (sodium phosphate, 40 mM, and pH 7.4); then, sodium chloride (10 mM dissolved in 1% (w/v) triton X-100) was added. During centrifugation (Sigma 3–30 KS), the homogenate was chilled to 4 °C and spun at a speed of 5000 rpm (20 min). The supernatant was either immediately put into action for an enzymatic test or frozen and kept at […] for later use. Each test was repeated three times. The protein content was determined using the same protocol employed by Lowry with modification using protein extract (100 µL) combined with an alkaline copper solution and a Folin–Ciocalteu phenol reagent (2 mL and 200 µL, respectively). The intensity of the resulting blue hue was evaluated during 30 min of incubation at 25 °C. Using an ELISA plate reader and a BSA standard curve, we could calculate the protein concentration by analyzing the absorbance at 600 nm (Multiskan SkyHigh Microplate Spectrophotometer, Thermo Fisher Scientific, Waltham, MA, USA).
(§2) The enzyme AChE was assessed using a substrate of acetylthiocholine iodide and evaluated using 5,5′-dithiobis [2-nitrbenzoic acid] (DTNB), according to [94]. Each well contained a sodium phosphate buffer (140 µL) (pH: 8.0; 100 mM), DTNB (10 µL), extract (20 µL)/components at 1, 10, 50, 100, and 1000 µg/mL in DMSO and underwent 15 min of incubation at 25 °C. Acetylthiocholine (ATCh) was added to start the reaction (10 µL). The ATCh enzymatic hydrolysis produced a 5-thio-2-nitrobenzoate anion as a color (yellow) that was detected by measuring its wavelength, i.e., 412 nm, thereby allowing the researchers to track the rate of ATCh hydrolysis (15 min). Each response was performed three times on a microplate and examined using an ELISA plate reader to determine the 412 nm absorbance of the combination (Multiskan SkyHigh Microplate Spectrophotometer). The AChE-specific activity was measured as OD412/mg protein.h. based on observing the effect of raising the quantities of all of these compounds during the tests on the inhibition results, and the inhibitory concentration (IC50) was calculated. Then, a computer algorithm was used to determine the IC50 values (Version 9.01 of GraphPad Prism by Inc., 2020, San Diego, CA, USA).

[2] = system: fourth-instar larvae of R. ferrugineus; test: Topical application (contact) to fourth-instar larvae (probit LD50); type: in vivo, Rhynchophorus ferrugineus; details: after 1 day of treatment, 95% confidence limits in brackets
Description: (§3) Over the course of 40 days, an O. basilicum cell suspension was cultivated in this investigation, and then the extract was obtained. […] Long segments of sugarcane stem were employed in the insect breeding lab at King Faisal University’s Research and Training Center to raise adult R. ferrugineus larvae. For this experiment, we used a topical application technique with larvae stored at 4 °C for five minutes to test the extract’s activity. Using a hand-operated micro-applicator (Burkard Manufacturing Co., Ltd., Hertfordshire, UK, collected using a […] micro-syringe), extracts at escalating ratios (10 µL) were injected into the dorsal surface of the larvae (Ito Corp.; MS-N50, Shizuoka, Japan). Five larvae per box in a series of three replicates were fed on sugarcane stem pieces measuring 10 cm in length. The LD50 was calculated by measuring the percentage of dead larvae at 24, 48, 72, and 96 h following a topical application. The antifeedant impact was determined in adults by giving them 10 cm sugarcane stem segments cut in half longitudinally. Long strips of sugarcane stem (32 cm^2) were immersed in the previous serial extract and compound concentration (10 mL) for ten seconds before they were dried in ambient air using a plastic box. Each box included a new pair of larvae (a male and a female). Ten sets of each treatment were performed. Data on how well the subjects ate were evaluated at 24, 48, 72, and 96 h.
(§4) The tissue culture parameters were calculated quantitatively from three independent sets of samples, and the mean SD was used to describe the findings. Toxicity parameters were determined quantitatively using a 10-replicate sample, and means and standard deviations were used to present the data. The median dosage obtained from a dose–response regression was used to calculate the LC50 value. By analyzing the comparative growth rate vs. the crude extract logarithm using least squares regression, the range of LC50 was calculated with 95% confidence. A simple variance study was performed on the increased weight and enzymatic activity data (ANOVA). The distinction between the means was accomplished using the Student–Newman–Keuls (SNK) test. Additionally, SPSS version 25 was used to find p < 0.05 significant deviations from the mean.

ALPs [3] = test: In vivo ALP inhibition in treated fourth-instar larvae; parameters: species or system Rhynchophorus ferrugineus; details: fourth-instar larvae treated 24 h
Description: (§5) Activities of ACPs and ALPs were evaluated using a modified version of the Asakura technique. The ACP test required incubating 100 μL of crude enzyme in a buffer of 650 μL of sodium acetate (pH: 5.0; 50 mM with ACPs) or 250 μL of Tris–HCl (at 50 mM; pH: 8.0 with ALPs) and p-nitrophenyl phosphate (5.5 mM). For 30 min; the various mixes were kept at 37 °C for incubation. Thereafter, 500 μL of NaOH (0.5 N) stopped the reaction. Using an ELISA plate reader, we determined the mixture’s 415 nm absorbance value (Multiskan SkyHigh Microplate Spectrophotometer). The ACP- and ALP-specific activity was estimated as OD 415/mg protein·h.
(§6) Each enzyme’s in vivo impact was measured after treating larvae with an extract or pure chemicals. An inhibitor-free test combination served as a negative control. We determined the absorbance of the enzymes throughout a spectrum of wavelengths using a rapid reader for ELISA plates (Multiskan SkyHigh Microplate Spectrophotometer). Extracts and pure chemicals were used to treat R. ferrugineus larvae at previous serial concentrations, and their AChE, ACP, ALP, and GABA-T activity was tested in vivo using the methods outlined above. Larvae spent a day on leaf disks treated with chemicals or extract.

AChE [4] = test: In vivo AChE inhibition in treated fourth-instar larvae; parameters: species or system Rhynchophorus ferrugineus; details: fourth-instar larvae treated 24 h
Description: as §2, §6

ALPs [5] = test: In vitro ALP inhibition, larval homogenate; type: biochemical, Rhynchophorus ferrugineus; details: for IC50 ALPs in vitro: fourth-instar larvae preparation
Description: as §1, §5

ACPs [6] = test: In vitro ACP inhibition, larval homogenate; type: biochemical, Rhynchophorus ferrugineus; details: fourth-instar larvae preparation
Description: as §1, §5

ACPs [7] = test: In vivo ACP inhibition in treated fourth-instar larvae; parameters: species or system Rhynchophorus ferrugineus; details: fourth-instar larvae treated 24 h
Description: as §5, §6

R. ferrugineus adults = test: Antifeedant/insecticidal test on adults with treated sugarcane stem (probit LC50); type: in vivo, Rhynchophorus ferrugineus; details: Rhynchophorus ferrugineus, 24 h, after 1 day of treatment, 95% confidence limits in brackets, read-out: LC50
Description: as §3, §4

Molecule | IC50 AChE in vitro (AChE [1]) | LD50 [2] | IC50 ALPs in vivo (ALPs [3]) [µg/mL] | IC50 AChE in vivo (AChE [4]) | IC50 ALP in vitro (ALPs [5]) [µg/mL] | IC50 ACPs in vivo (ACPs [7]) | LC50 (R. ferrugineus adults) [µg/mL] | also measured
O=C(/C=C/c1ccc(O)c(O)c1/C=C/c1ccc(O)c(O)c1)O[C@H](Cc1ccc(O)c(O)c1)C(=O)O [Salvianolic acid A] | 94 ± 0.94 µg/mL | 11.3 (10.2–12.47) µg/Larvae | 213.8 | 178.2 µg/mL | 116 (≈ 234 µM) | < 330 µg/mL and 226.3 µg/mL | 1260 (≈ 2550 µM) | IC50 AChE in vitro (AChE [1]; listed as salvianolic acid A): 93.6 µg/mL; LD50 ([2]; listed as salvianolic acid A): 11.3 µg/Larvae; IC50 ALPs in vitro (ALPs [5]; listed as salvianolic acid A): < 200 µg/mL; IC50 ACPs in vitro (ACPs [6]; listed as salvianolic acid A): 112.2 µg/mL (≈ 227 µM)
O=C(/C=C/c1ccc(O)c(O)c1)O[C@H](Cc1ccc(O)c(O)c1)C(=O)O [Rosmarinic acid] | 119.2 µg/mL and 119 ± 1.14 µg/mL | 11.8 (11.2–12.5) µg/Larvae | 256.7 | 235.1 µg/mL and 235 ± 1.14 µg/mL | 150 (≈ 415 µM) | < 330 µg/mL and 258.7 µg/mL | 1430 (≈ 3960 µM) | IC50 ALPs in vitro (ALPs [5]): < 200 µg/mL; IC50 ACPs in vitro (ACPs [6]): 139.7 µg/mL (≈ 388 µM)
C[C@H]1[C@H](C)CC[C@]2(C(=O)O)CC[C@]3(C)C(=CC[C@@H]4[C@@]5(C)CC[C@H](O)C(C)(C)[C@@H]5CC[C@]43C)[C@H]12 [Ursolic acid] | 170 ± 1.52 µg/mL | 14.9 (13.6–15.4) µg/Larvae |  | 458 ± 1.52 µg/mL | 141 (≈ 309 µM) |  | 1120 (≈ 2450 µM) | IC50 AChE in vitro (AChE [1]; listed as ursolic acid): 169.5 µg/mL; LD50 ([2]; listed as ursolic acid): 14.9 µg/Larvae; IC50 ALPs in vivo (ALPs [3]; listed as ursolic acid): 476.9 µg/mL; IC50 AChE in vivo (AChE [4]; listed as ursolic acid): 457.8 µg/mL; IC50 ALPs in vitro (ALPs [5]; listed as ursolic acid): < 200 µg/mL; IC50 ACPs in vitro (ACPs [6]; listed as ursolic acid): 167.8 µg/mL (≈ 367 µM); IC50 ACPs in vivo (ACPs [7]; listed as ursolic acid): 392.4 µg/mL
COc1ccc(-c2cc(=O)c3c(O)c(OC)c(OC)cc3o2)cc1 [Salvigenin] | 130 ± 1.23 µg/mL | 10.8 (10.2–11.5) µg/Larvae |  | 258 ± 1.23 µg/mL | 123 (≈ 374 µM) |  | 1140 (≈ 3480 µM) | IC50 AChE in vitro (AChE [1]; listed as salvigenin): 129.7 µg/mL; LD50 ([2]; listed as salvigenin): 10.8 µg/Larvae; IC50 ALPs in vivo (ALPs [3]; listed as salvigenin): 228.7 µg/mL; IC50 AChE in vivo (AChE [4]; listed as salvigenin): 258.4 µg/mL; IC50 ALPs in vitro (ALPs [5]; listed as salvigenin): < 200 µg/mL; IC50 ACPs in vitro (ACPs [6]; listed as salvigenin): 151.2 µg/mL (≈ 461 µM); IC50 ACPs in vivo (ACPs [7]; listed as salvigenin): < 330 µg/mL and 294.2 µg/mL
Chicoric acid | 108 ± 1.07 µg/mL | 9.45 (9.07–10.45) µg/Larvae |  | 213 ± 1.07 µg/mL |  |  |  | IC50 AChE in vitro (AChE [1]; listed as chicoric acid): 107.5 µg/mL; LD50 ([2]; listed as chicoric acid): 9.45 µg/Larvae; IC50 ALPs in vivo (ALPs [3]; listed as chicoric acid): 237.2 µg/mL; IC50 AChE in vivo (AChE [4]; listed as chicoric acid): 211.6 µg/mL; IC50 ALPs in vitro (ALPs [5]; listed as chicoric acid): < 200 µg/mL; IC50 ACPs in vitro (ACPs [6]; listed as chicoric acid): 101.7 µg/mL; IC50 ACPs in vivo (ACPs [7]; listed as chicoric acid): < 330 µg/mL and 204.8 µg/mL
